Source: patent US7598029B2, “Method for identifying HIV-1 protease inhibitors with reduced metabolic affects” (Bristol-Myers Squibb Company, priority 2006, dated 2009)

Tests used:
[1] = target: T1, cathepsin E (Homo sapiens, UniProt P14091); assay: Protease digestion of resistin by cathepsin E with HIV-1 protease inhibitors, SDS-PAGE; format: biochemical; conditions: for inhibition of cleavage of resistin by cathepsin E: 1 ug alkylated and reduced resistin, 0.1 ug cathepsin E
T1 construct: purchased R&D Systems Inc
T1 sequence (P14091 54-396): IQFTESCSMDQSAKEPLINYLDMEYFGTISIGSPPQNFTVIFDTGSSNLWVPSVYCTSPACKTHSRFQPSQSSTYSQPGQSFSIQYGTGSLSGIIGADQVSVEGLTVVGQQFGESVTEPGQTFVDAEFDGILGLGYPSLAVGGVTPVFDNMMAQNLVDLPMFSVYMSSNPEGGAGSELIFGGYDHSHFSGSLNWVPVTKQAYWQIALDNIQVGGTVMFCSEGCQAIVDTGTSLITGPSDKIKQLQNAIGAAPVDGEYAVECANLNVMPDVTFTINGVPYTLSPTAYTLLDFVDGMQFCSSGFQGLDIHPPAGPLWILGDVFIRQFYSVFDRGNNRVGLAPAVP
Experimental: (§1) Atazanavir was synthesized by and provided in pure form from the Chemistry Division of Bristol-Myers Squibb Co. All compounds were dissolved in 100% DMSO (Sigma). The final concentration of DMSO was 0.2% in experiments that included a protease inhibitor.
(§2) Recombinant Proteins: Recombinant human and mouse resistin were obtained from Santa Cruz Biotech. Recombinant cathepsin D and cathepsin E were obtained from R&D Systems Inc. Recombinant HIV-1 protease was obtained from Protein One. Recombinant renin was obtained from Cayman Chemical and recombinant trypsin was from Promega.
(§3) Alkylation/Reduction of Cysteine Residues: Lyophilized resistin (24 micrograms) was resuspended in 50 ul of fresh UA buffer (8 M urea, 0.4 M ammonium bicarbonate) and 5 ul of 45 mM DTT. The mixture was then incubated at 50° C. for 15 min, followed by addition of 5 ul of 0.1 M iodoacetamide. The reaction was then incubated for an additional 15 min in the dark at room temperature, followed by the addition of 140 ul of H20.
(§4) Preparation of Proteases: Lyophilized cathepsin D (10 ug) was resuspended in 100 ul H20. Cathepsin D was activated prior to use by incubating at 20 ng/ul in CathD buffer (100 mM NaOAc, 200 mM NaCl, pH 4.7) for 30 min at 37° C. Lyophilized cathepsin E (10 ug) was resuspended in 100 ul of reconstitution buffer (25 mM MES, 0.15 M NaCl, pH 6.5). Cathepsin E was activated prior to use by incubating at 20 ng/ul in CathE buffer (100 mM NaOAc, 100 mM NaCl, pH 4.7) for 30 min at room temperature. Renin was diluted to 20 ng/ul in renin buffer (50 mM Tris-HCl, pH 8, 100 mM NaCl) prior to use. Lyophilized trypsin (20 ug) was resuspended in 500 ul reconstitution buffer provided by the manufacturer (Promega). Trypsin was activated prior to use by incubating for 15 min at 30° C. HIV-1 protease was used directly from the manufacturer.
(§5) Protease Digestion Experiments: In all protease digestion reactions, 1 ug of alkylated and reduced resistin was incubated with either 1 ug HIV-1 protease, 0.1 ug cathepsin D, 0.1 ug cathepsin E or 0.1 ug trypsin. HIV-1 protease digestion was performed in HIV-1 PR buffer (50 mM MES (pH 6), 100 mM NaCl). Trypsin digestion was performed in TE buffer (10 mM Tris (pH 8), 0.1 mM EDTA (pH 8)). The respective reaction buffers for cathepsin D, cathepsin E and renin are listed above under “Preparation of proteases”. […] All protease digestion experiments were incubated for 24 hr at 37° C. with the exception of experiments containing cathepsin E, which were incubated at room temperature. Reactions were quenched in LDS loading dye (Invitrogen) containing reducing agent (Invitrogen). Reactions were subsequently heated at 70° C. for 5 min prior analysis by SDS-PAGE.
(§6) SDS-PAGE Analysis: Cleavage products were resolved using 4-12% Bis-Tris NUPAGE® Gels (Invitrogen). Gels were run at 200 V for 20 min in MES buffer. Protein bands were visualized by staining with Gel Code reagent (Pierce).

[2] = target: T2, cathepsin D (Homo sapiens, UniProt P07339); assay: Protease digestion of resistin by cathepsin D with HIV-1 protease inhibitors, SDS-PAGE; format: biochemical; conditions: for inhibition of cleavage of resistin by cathepsin D: 1 ug alkylated and reduced resistin, 0.1 ug cathepsin D
T2 construct: purchased R&D Systems Inc
T2 sequence (P07339 65-412): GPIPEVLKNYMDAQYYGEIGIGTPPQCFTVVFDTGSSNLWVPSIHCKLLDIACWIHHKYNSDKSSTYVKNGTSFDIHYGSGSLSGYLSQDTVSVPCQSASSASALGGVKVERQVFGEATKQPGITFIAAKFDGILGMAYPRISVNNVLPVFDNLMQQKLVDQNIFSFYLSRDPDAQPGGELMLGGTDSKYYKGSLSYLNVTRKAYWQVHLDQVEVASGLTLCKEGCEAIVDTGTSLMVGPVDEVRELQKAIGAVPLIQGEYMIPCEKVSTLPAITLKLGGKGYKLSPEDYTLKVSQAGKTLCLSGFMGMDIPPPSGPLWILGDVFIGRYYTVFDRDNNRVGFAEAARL
Experimental: as §1, §2, §3, §4, §5, §6

[3] = human, in vivo; cited from earlier work

**Q.** For `CC(C)(C)NC(=O)[C@@H]1CN(Cc2cccnc2)CCN1C[C@@H](O)C[C@@H](Cc1ccccc1)C(=O)N[C@H]1c2ccccc2C[C@H]1O` [indinavir], which “inhibition of cleavage of resistin by cathepsin E” value ([1]; 24 hr at room temperature) is on record?
**A.** Its value is “not”.

**Q.** What about the “inhibition of cleavage of resistin by cathepsin D” value ([2]; 24 hr at 37° C.) of the same molecule?
**A.** The value was “not”.

**Q.** Which results are given for `CC(C)(C)NC(=O)[C@@H]1C[C@@H]2CCCC[C@@H]2CN1C[C@@H](O)[C@H](Cc1ccccc1)NC(=O)[C@H](CC(N)=O)NC(=O)c1ccc2ccccc2n1` [saquinavir]?
**A.** inhibition of cleavage of resistin by cathepsin E ([1]; 24 hr at room temperature): prevented; inhibition of cleavage of resistin by cathepsin D ([2]; 24 hr at 37° C.): prevented; association with HIV-1 protease inhibitor induced metabolic abnormalities [3]: known to be associated

**Q.** For `Cc1c(O)cccc1C(=O)N[C@@H](CSc1ccccc1)[C@H](O)CN1C[C@H]2CCCC[C@H]2C[C@H]1C(=O)NC(C)(C)C` [nelfinavir], which “inhibition of cleavage of resistin by cathepsin E” value ([1]; 24 hr at room temperature) is on record?
**A.** Its value is “not”.

**Q.** And the “inhibition of cleavage of resistin by cathepsin D” value ([2]; 24 hr at 37° C.)?
**A.** The value was “not”.

**Q.** What about the “association with HIV-1 protease inhibitor induced metabolic abnormalities” value [3] of the same molecule?
**A.** Its value is “are not”.

**Q.** With `CC(C)c1nc(CN(C)C(=O)N[C@H](C(=O)N[C@@H](Cc2ccccc2)C[C@H](O)[C@H](Cc2ccccc2)NC(=O)OCc2cncs2)C(C)C)cs1` [ritonavir] as the molecule, how does the “concentration at which cleavage of resistin by cathepsin E was detectably inhibited” value ([1]; 24 hr at room temperature, FIG. 2) read?
**A.** The value was 10 µM.

**Q.** What about the “concentration at which cleavage of resistin by cathepsin E was detectably inhibited” value ([1]; Example 1, FIG. 2, 24 hr at room temperature) of the same molecule?
**A.** The value was 10 µM.

**Q.** What about the “concentration at which cathepsin E was fully inhibited” value ([1]; Example 1, resistin cleavage) of the same molecule?
**A.** Its value is 30 µM.

**Q.** What about the “concentration at which cathepsin E was fully inhibited” value ([1]; resistin cleavage, 24 hr at room temperature) of the same molecule?
**A.** Its value is 30 µM.

**Q.** And the “concentration at which cleavage of resistin by cathepsin D was detectably inhibited” value ([2]; 24 hr at 37° C., FIG. 2)?
**A.** The value was 30 µM.

**Q.** What about the “concentration at which cleavage of resistin by cathepsin D was detectably inhibited” value ([2]; Example 1, FIG. 2, 24 hr at 37° C.) of the same molecule?
**A.** The value was 30 µM.

**Q.** And the “concentration at which cathepsin D was fully inhibited” value ([2]; Example 1, resistin cleavage)?
**A.** The value was 100 µM.

**Q.** What about the “concentration at which cathepsin D was fully inhibited” value ([2]; resistin cleavage, 24 hr at 37° C.) of the same molecule?
**A.** The value was 100 µM.

**Q.** And the “elevated plasma cholesterol and plasma triglyceride levels” value [3]?
**A.** Its value is “significantly more pronounced”.

**Q.** What about the frequency of hypertriglyceridaemia [3] of the same molecule?
**A.** Its frequency of hypertriglyceridaemia is “more frequent”.

**Q.** What about the hypercholesterolemia [3] of the same molecule?
**A.** The hypercholesterolemia was “observed”.

**Q.** And the hypertriglyceridaemia [3]?
**A.** The hypertriglyceridaemia was “severe hypertriglyceridaemia”.

**Q.** What does the source list for `COC(=O)N[C@H](C(=O)N[C@@H](Cc1ccccc1)[C@@H](O)CN(Cc1ccc(-c2ccccn2)cc1)NC(=O)[C@@H](NC(=O)OC)C(C)(C)C)C(C)(C)C` [atazanavir]?
**A.** inhibition of cleavage of resistin by cathepsin E ([1]; 24 hr at room temperature): not detectably inhibited; inhibition of cleavage of resistin by cathepsin D ([2]; 24 hr at 37° C.): not detectably inhibited; change in fasting LDL cholesterol, total cholesterol, and fasting triglycerides [3]: either no change or decreases

**Q.** Which “correlation of lipid abnormalities with plasma concentrations” value [3] does the source give for `Cc1cccc(C)c1OCC(=O)N[C@@H](Cc1ccccc1)[C@@H](O)C[C@H](Cc1ccccc1)NC(=O)[C@H](C(C)C)N1CCCNC1=O` [lopinovir] here?
**A.** The value was “did not correlate”.
